Test results from patent publication US20220125746A1, “METHOD OF PREVENTING OR TREATING TREATMENT-INDUCED GASTROINTESTINAL INJURY” (priority 2019, published 2022).
Counter-ions that a name gives are not always drawn.

Target: T1, PUMA/BCL-xL (Homo sapiens, UniProt Q9BXH1)
T1 construct: expressed in transfected cells; host or cells: HEK293 (human embryonic kidney 293) cells, Lipofectamine 2000; lysates used
T1 sequence (Q9BXH1 1-193): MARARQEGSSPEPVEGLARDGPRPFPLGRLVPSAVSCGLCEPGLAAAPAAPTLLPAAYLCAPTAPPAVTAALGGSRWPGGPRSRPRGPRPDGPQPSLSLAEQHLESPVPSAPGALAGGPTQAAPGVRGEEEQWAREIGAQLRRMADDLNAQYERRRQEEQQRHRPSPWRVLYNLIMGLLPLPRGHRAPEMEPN
Assay: Immunoprecipitation of HA-PUMA / V5-Bcl-xL from 293 lysates
Format: binding
Details: 25 uM, 15 min, anti-HA immunoprecipitation, western blot
Method: (FIG. 10A) Structure of the PUMA inhibitor lead compound (PUMAi). (FIG. 10B) Lysates of 293 cells transfected with individual plasmids for 24 hours were mixed in the indicated combinations. Lysates were incubated with vehicle or PUMA inhibitor (PUMAi, 25 μM) for 15 min before immunoprecipitation with an anti-HA antibody. The HA-bound proteins and input were analyzed by western blotting. (FIG. 10C) Lysates of 293 cells transfected with individual plasmids for 24 h were mixed in the indicated combinations. Lysates were incubated with vehicle or PUMA Inhibitor (PUMAi, 25 μM) for 15 min before immunoprecipitation with an anti-HA antibody. The HA-bound proteins and input were analyzed by western blotting. (FIG. 10D) Indicated colon cancer cell lines were treated with camptothecin (CPT, 500 nM) for 24 h. HCT 116 cells and PUMA KO HCT 116 cells have WT p53, others have no (KO) or mutant p53. Apoptosis was measured by nuclear fragmentation assay. Values are mean+SEM; n=3 independent experiments. (FIG. 10E) Cells were treated as in D for 24 h and analyzed by western blotting. Representative results are shown, and similar results were obtained in at least three independent experiments. […]

OCCN1CCN(CC(O)COc2ccc3ccccc3c2)CC1 (stereo not shown) [PUMAi, 1-[4-(2-hydroxyethyl)-1-piperazinyl]-3-(2-naphthyloxy)-2-propanol dihydrochloride]
inhibition of PUMA/BCL-xL interaction: inhibit interaction of PUMA/BCL-xL
